Laboratory results as given in patent US12378294B2, “IL-4 derived peptides for use in the treatment of obesity” (SERODUS APS, priority 2022, dated 2025).
Values joined by “and” are separate entries in the source; they are usually repeats but may differ in a detail not shown here. Equal entries are not always repeated. Where no end group is shown, it is not given here.

How the values were obtained:
[1] = tested on: female mice (BKS.Cg-Dock7m+/+Leptin db/db BLKS); assay: Effect of an IL-4 derived peptide on body weight in db/db mice; format: in vivo; conditions: for Effect on weight / weight gain compared to vehicle: treatment group vs vehicle/placebo group, 77 days s.c. once daily
Protocol: 30 female mice (BKS.Cg-Dock7m+/+Leptin db/db BLKS, 5 weeks of age) were transferred to the Gubra Research animal unit in Denmark. Throughout the habituation and study period, the animals were housed in a light-, temperature-, and -humidity-controlled room with free access to food and water. All animal experiments were conducted in accordance with Gubra bioethical guidelines, which are fully compliant with internationally accepted principles for the care and use of laboratory animals. The body weight of the animals was recorded at the start of the study (baseline), on day 13, day 27, day 34, day 43, day 60 and day 77 (termination of study).
Compound A was prepared using standard solid phase peptide synthesis (SPPS) procedures. Compound A was provided by Phlogo ApS, Copenhagen, Denmark (10 mg/ml miliQ water diluted to the dose formulations). Vehicle was miliQ:PBS 1:5.
The mice were randomized into a vehicle group (n=15) and a 10 mg/kg Compound A (n=15). The compound as well as the vehicle was administered subcutaneously once daily. On day 27, the dose was lowered to 5 mg/kg Compound A (n=15), and on day 43, the dose was lowered to 2.5 mg/kg Compound A (n=15).

IL-4 receptors = molecular target: T1, IL-4 receptors (Homo sapiens, UniProt P24394); conditions: cited from earlier work
T1 sequence (P24394 26-825): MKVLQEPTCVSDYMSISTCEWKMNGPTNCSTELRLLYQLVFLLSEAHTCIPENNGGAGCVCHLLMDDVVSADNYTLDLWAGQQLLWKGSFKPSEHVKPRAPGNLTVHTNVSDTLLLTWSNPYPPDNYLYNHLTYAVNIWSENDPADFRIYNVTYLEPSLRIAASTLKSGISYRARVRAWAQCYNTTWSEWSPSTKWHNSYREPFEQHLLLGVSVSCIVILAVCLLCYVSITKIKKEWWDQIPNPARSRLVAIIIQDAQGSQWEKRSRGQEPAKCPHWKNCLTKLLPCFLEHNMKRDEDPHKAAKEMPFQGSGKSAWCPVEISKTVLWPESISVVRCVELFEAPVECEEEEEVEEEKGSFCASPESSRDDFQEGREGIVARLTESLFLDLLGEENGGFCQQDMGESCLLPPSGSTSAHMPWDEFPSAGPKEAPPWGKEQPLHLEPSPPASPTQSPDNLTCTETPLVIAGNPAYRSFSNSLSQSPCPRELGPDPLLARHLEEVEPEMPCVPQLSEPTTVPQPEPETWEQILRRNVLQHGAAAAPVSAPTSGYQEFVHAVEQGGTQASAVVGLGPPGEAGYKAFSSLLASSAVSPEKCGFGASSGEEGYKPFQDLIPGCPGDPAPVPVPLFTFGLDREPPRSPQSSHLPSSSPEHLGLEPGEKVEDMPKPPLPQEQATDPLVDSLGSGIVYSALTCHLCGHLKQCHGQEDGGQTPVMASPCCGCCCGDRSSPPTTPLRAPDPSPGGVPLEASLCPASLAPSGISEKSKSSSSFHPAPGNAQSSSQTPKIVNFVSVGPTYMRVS

type II IL-4R = molecular target: T2, type II IL-4R (Homo sapiens, UniProt P24394); conditions: cited from earlier work
T2 sequence (P24394 26-825): T1 sequence (P24394 26-825)

type I IL-4R = molecular target: T3, type I IL-4R (Homo sapiens, UniProt P24394); conditions: cited from earlier work
T3 sequence (P24394 26-825): T1 sequence (P24394 26-825)

macrophages = conditions: cited from earlier work

Row | Substance | Δ Weight ([1]; individual animals 1-15 of treatment group, day 77 minus baseline, s.c. once daily, 10 then 5 then 2.5 mg/kg) | Weight at day 77 ([1]; individual animals 1-15 of treatment group, s.c. once daily, 10 mg/kg, lowered to 5 mg/kg on day 27 and 2.5 mg/kg on day 43, day 77) | Δ Weight (g), mean ([1]; mean of treatment group (n=15), baseline to day 77, s.c. once daily, 10 then 5 then 2.5 mg/kg, placebo mean 5.76) | Weight at day 77 (g), mean ([1]; mean of treatment group (n=15), s.c. once daily, 10 then 5 then 2.5 mg/kg, placebo mean 50.64) | Weight increase during the study period ([1]; treatment group average, baseline to day 77, placebo 12.8%) | Effect on weight / weight gain compared to vehicle [1] | Effect on weight / weight gain compared to vehicle ([1]; listed as compound A) | Binding to the IL-4 receptors (IL-4 receptors) | Activity on type II IL-4R (type II IL-4R) | Activity on type I IL-4R (type I IL-4R) | Macrophage activation (macrophages)
1 | Compound A: dimer of SEQ ID NO:1 (AQFHRHKQLIRFLKRA) connected through a linker (lysine-beta-alanine) at the C-terminals (also: dimer of two chains joined at the C-termini through a Lys-βAla linker) | 1.80 g and -1.60 g and 7.30 g and 4.40 g and 4.50 g and 2.70 g and -1.90 g and 8.00 g and 4.20 g and 11.20 g and 11.40 g and 3.20 g and -1.30 g and 0.90 g and 1.40 g | 54.30 g (2×) and 47.30 g and 48.40 g and 52.50 g and 59.10 g and 47.60 g and 37.50 g and 57.30 g and 51.80 g and 58.10 g and 59.40 g and 52.40 g and 49.20 g and 49.40 g | 3.51 g | 48.66 g | 7.8% | significantly decreased the weight | decreased the weight gain |  |  |  | 
2 | AQFHRHKQLIRFLKRA [SEQ ID NO:1, 16-residue IL-4 derived peptide, variant of AA71-AA86 of IL-4] |  |  |  |  |  |  |  | capable of binding to the IL-4 receptors | antagonist | high affinity partial agonist | inhibiting macrophage activation
